Results: article PMC12518634, “The noncanonical function of liver-type phosphofructokinase potentiates the efficacy of HDAC inhibitors in cancer” (Signal Transduction and Targeted Therapy, 2025)
Where a name gives a salt, the structure may show the parent alone. Read-outs that look alike come from different tables or passages of the source.

Key:
[1] = tested on: 783C-6; assay: High-throughput drug screen, CellTiter-Glo viability, 72 h; format: cell-based, human; parameters: AUC: scale not given here; settings: for AUC: area under the dose-response curve; for EC50: 72 h, read-out: EC50
Method in brief: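 Cholangiocarcinoma cells were seeded at 3000/well in 384-well plates and dosed after 24 h. Drugs were tested at 10, 1, 0.1, 0.01 and 0.001 μM in duplicate for 72 h, with viability read by CellTiter-Glo luminescence.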

[2] = tested on: 1405R3; assay: as above; format: cell-based, human; parameters: AUC: scale not given here; settings: 1405R3 DSRT analysis; for AUC: area under the dose-response curve; for MIN: lower asymptote of fitted dose-response curve; for SLOPE: slope of fitted dose-response curve; for EC50: fitted dose-response curve, Min.Conc.tested 1, Max.Conc.tested 10000, 72 h, read-out: EC50
Method in brief: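 Responses are drug sensitivity scores (efficacy cutoff ≥10), fitted from CellTiter-Glo luminescence. Each drug was given at five concentrations (10 to 0.001 μM, tenfold steps) in duplicate for 72 h. Cells were plated at 3000/well 24 h before dosing.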

[3] = 783C-6 cells, DSS of DSRT analysis
[4] = 783C-6 cells, minimum of dose-response curve
[5] = 783C-6 cells, slope of fitted dose-response curve
[6] = 783C-6 DSRT analysis, DSS calculated from the dose-response curve
[7] = 783C-6 DSRT analysis, MIN of the fitted dose-response curve
[8] = 783C-6 DSRT analysis, CellTiter-Glo viability, fitted dose-response curve, Min.Conc.tested 1, Max.Conc.tested 10000
[9] = 783C-6 DSRT analysis, slope of the fitted dose-response curve
[10] = Homo sapiens, CellTiter-Glo viability, GI50
[11] = 783C-6 cells, DSRT analysis, CellTiter-Glo viability, concentrations tested 1 to 10000 (unit inferred), GI50

Molecule | DSS [1, 3] | AUC ([1]; 783C-6 cells) | MIN [1, 4] | SLOPE [1, 5] | AUC [2] | DSS ([2]; drug sensitivity score) | MIN [2] | SLOPE [2] | DSS [1, 6] | MIN [1, 7] | AUC ([1]; 783C-6 DSRT analysis) | EC50 ([1]; Homo sapiens) | DSS ([2]; DSS) | EC50 ([2]; Homo sapiens, CellTiter-Glo) | EC50 [1, 8] | SLOPE [1, 9] | EC50 ([2]; CellTiter-Glo) | EC50 [2, 10] | EC50 [1, 11] | EC50 ([2]; CellTiter-Glo viability, GI50)
CN1CCc2c(c3ccccc3n2Cc2ccc(C(=O)NO)cc2)C1.Cl [Tubastatin A HCl] | 0 | 2.4 | 92.1 | -1 | 3.3 | 0 | 94.8 | -0.5 | – | – | – | – | – | – | – | – | – | – | – | –
CCN1CCN(c2ccc(Nc3cc(N(C)C(=O)Nc4c(Cl)c(OC)cc(OC)c4Cl)ncn3)cc2)CC1 [BGJ398] | – | – | – | – | 50.1 | – | 7.2 | – | 8 | 7.1 | 70 | 1770 nM | 5.5 | 2940 nM | – | – | – | – | – | –
COc1cc2c(NC3CCN(C)CC3)cc(-c3ccc(C)o3)nc2cc1OCCCN1CCCC1 [CM272] | – | – | – | – | 59.8 | – | 15.5 | -2.5 | 13.1 | 28.5 | 107.8 | – | 6.8 | – | 311 nM | -2.5 | 1980 nM | – | – | –
CC(=O)O[C@H]1C(=O)[C@@]2(C)[C@H]([C@H](OC(=O)c3ccccc3)[C@]3(O)C[C@H](OC(=O)[C@H](O)[C@@H](NC(=O)c4ccccc4)c4ccccc4)C(C)=C1C3(C)C)[C@]1(OC(C)=O)CO[C@@H]1C[C@@H]2O [Paclitaxel] | 21.1 | 167.6 | 52.1 | – | 129.3 | 14.6 | 37.8 | – | – | – | – | 1.9 nM | – | – | – | – | – | 82.1 nM | – | –
O=C(NO)c1cnc(NC2(c3cccc(F)c3)CCCCC2)nc1 [ACY-775] | – | – | – | – | 0.4 | – | 98.9 | -0.9 | 0 | 97.3 | 2.4 | – | 0 | – | – | -0.3 | – | – | – | –
CC(C)N(CCCNC(=O)Nc1ccc(C(C)(C)C)cc1)C[C@H]1O[C@@H](n2cc(Br)c3c(N)ncnc32)[C@H](O)[C@@H]1O [SGC 0946] | 0 | 19.5 | 94.1 | – | 6.1 | 0 | 93.6 | – | – | – | – | – | – | – | – | – | – | – | – | –
CCCC(CCC)C(=O)O [Divalproex Sodium] | – | – | – | – | 0.1 | – | 100 | – | 0 | 96.3 | 0.4 | – | 0 | – | – | – | – | – | – | –
N#Cc1c(-c2ccccc2)cc(-c2cc(Br)ccc2O)[nH]c1=O [TCS PIM-1 1] | 0 | 5.4 | 92.2 | -0.4 | 2.3 | 0 | 96.8 | -0.4 | – | – | – | – | – | – | – | – | – | – | – | –
TC-H 106 | 5.3 | 61.5 | 48.5 | -0.6 | 47 | 2.6 | 75.6 | -0.4 | – | – | – | – | – | – | – | – | – | – | 923 nM | –
CS(=O)(=O)CCNCc1ccc(-c2ccc3ncnc(Nc4ccc(OCc5cccc(F)c5)c(Cl)c4)c3c2)o1 [Lapatinib] | – | – | – | – | 0 | – | 99.9 | – | 0 | 93.5 | 2 | – | 0 | – | – | – | – | – | – | –
O=S(=O)(Cl)c1ccc(-c2ccccc2)cc1 [Biphenyl-4-sulfonyl chloride] | – | – | – | – | 6.3 | – | 94 | -0.2 | 0 | 88.2 | 18.3 | – | 0 | – | – | -0.1 | – | – | – | –
O=C(NNc1ccccn1)c1ccccn1 [PFI-90] | 0 | 10.9 | 92.2 | -2.5 | 8.1 | 0 | 93.5 | -0.2 | – | – | – | – | – | – | – | – | – | – | – | –
CN(C)NC(=O)CCC(=O)O [Daminozide] | – | – | – | – | 0.1 | – | 99.6 | – | 0 | 97.8 | 1 | – | 0 | – | – | – | – | – | – | –
O=C(NNS(=O)(=O)c1ccccc1F)c1cc(F)cc(-c2ccccn2)c1 [WM-1119] | 0 | 7.3 | 75.9 | – | 51.4 | 0 | 66.9 | – | – | – | – | – | – | – | – | – | – | – | – | –
CCOC(=O)CCNc1cc(N2CCc3ccccc3CC2)nc(-c2ccccn2)n1 [GSK J4 HCl] | – | – | – | – | 26.1 | – | 65 | – | 0 | 70.3 | 8.9 | – | 2.7 | 1800 nM | – | – | – | – | – | –
COc1cc2nccc(Oc3ccc(NC(=O)NC4CC4)c(Cl)c3)c2cc1C(N)=O [Lenvatinib] | – | – | – | – | 0.1 | – | 99.3 | – | 0 | 93.6 | 8.6 | – | 0 | – | – | – | – | – | – | –
COC(=O)c1ccc2c(c1)NC(=O)/C2=C(\Nc1ccc(N(C)C(=O)CN2CCN(C)CC2)cc1)c1ccccc1 [Nintedanib] | 1.6 | 17.9 | 72.2 | – | 13.7 | 0.8 | 84 | – | – | – | – | 2290 nM | – | – | – | – | – | – | – | –
Clc1ccc(N/N=C(\c2ccccc2)c2ccccn2)nc1 [JIB-04] | – | – | – | – | 73.8 | – | 34.7 | -1.2 | 4.8 | 18.2 | 43.9 | – | 8.1 | – | 2960 nM | -2.5 | 766 nM | – | – | –
COc1ccc(-c2nc(N3CCOCC3)c3sc(CN(C)c4ncc(C(=O)NO)cn4)cc3n2)cn1 [CUDC-907] | – | – | – | – | 188.1 | – | 0.8 | – | 21.1 | 2.9 | 175.2 | 157 nM | 22.6 | 127 nM | – | – | – | – | – | –
CNC(=O)c1cc(Oc2ccc(NC(=O)Nc3ccc(Cl)c(C(F)(F)F)c3)cc2)ccn1 [Sorafenib Tosylate] | 3.4 | 31.4 | – | – | 36.2 | 3.8 | 14 | – | – | – | – | 2190 nM | – | – | – | – | – | 3940 nM | – | –
CCS(=O)(=O)N1CCC([C@@H](C)n2c(C)c(C(=O)NCc3c(OC)cc(C)[nH]c3=O)c3ccccc32)CC1 [CPI-169] | – | – | – | – | 0.1 | – | 100 | – | 0 | 97.5 | 1 | – | 0 | – | – | – | – | – | – | –
O=C(NO)c1cnc(NC2(c3ccccc3)CC2)nc1 [ACY-738] | – | – | – | – | 44.6 | – | 25.2 | – | 5.2 | 24.1 | 46.6 | 2460 nM | 5 | 2570 nM | – | – | – | – | – | –
Cc1cc(-c2ccccc2)cc(C(=O)NNS(=O)(=O)c2ccccc2)c1F [WM-8014] | 0 | 5.5 | 81.8 | -1 | 16.3 | 0 | 89.5 | -0.1 | – | – | – | – | – | – | – | – | – | – | – | –
O=C(CCc1ccc(CN[C@H](C(=O)OC2CCCC2)C2CCCCC2)cn1)NO [GSK3117391] | – | – | – | – | 74.7 | – | 7.4 | -1.9 | 7.5 | 4.1 | 65.5 | – | 8.4 | – | 2090 nM | -2.5 | 1580 nM | – | – | –
C#Cc1cccc(Nc2ncnc3cc4c(cc23)OCCOCCOCCO4)c1 [Icotinib] | – | – | – | – | 21.6 | – | 84.3 | – | 0 | 90.4 | 16.8 | – | 1.4 | – | – | – | – | – | – | –
CN(C)Cc1ccc(S(=O)(=O)n2ccc(/C=C/C(=O)NO)c2)cc1 [Resminostat] | 4.3 | 39.6 | 25.4 | – | 45 | 5 | 20.3 | – | – | – | – | 3000 nM | – | – | – | – | – | 2770 nM | – | –
COc1cccc2c1c(O)c(C(=O)N(C)c1ccc(C(F)(F)F)cc1)c(=O)n2C [Tasquinimod] | 0 | 1.7 | 96 | – | 0.1 | 0 | 100 | – | – | – | – | – | – | – | – | – | – | – | – | –
CCCCCCCc1ccc(CCc2cccc(O)c2C(=O)O)cc1 [MG149] | – | – | – | – | 18.5 | – | 85.7 | -0.2 | 0 | 87.6 | 3.7 | – | 0 | – | – | -1 | – | – | – | –
CN1CCC(CNc2ccc3ncc(-c4cccc(OC(F)(F)F)c4)n3n2)CC1 [SGI-1776 free base] | 4.9 | 44.9 | 10.3 | -2.5 | 51.4 | 5.7 | 1.9 | -2.5 | – | – | – | – | – | – | – | – | – | – | 3230 nM | 3060 nM
